Measured values as given in patent US20250008983A1, “COMPOSITIONS CONTAINING PEROXYACIDS TO CONTROL PATHOGEN GROWTH IN ANIMAL FEED AND RELATED METHODS” (KEMIN INDUSTRIES, INC., priority 2023, published 2025).
In brackets after ≈: the same amount, converted by molar mass.

Tests used:
[1] = tested on: Salmonella enterica isolated from layer feed; experiment: Preliminary in vitro feed assay, Salmonella count in contaminated feed over 21 days; type: cell-based; conditions: 15 kg/ton; pre-treatment Day 0
Protocol: Preparation of the treatment. Perpropionic acid, peracetic acid, mixture of peroctanoic acid and perdecanoic acid (PC8/PC10) and Sal CURB products were used without any further dilution or mixing. The peroxy mix was prepared by mixing peracetic and perpropionic acid in 1:1 weight ratio. Briefly, 1.0 g of peroxy mix was prepared by weighing 0.5 g of peracetic acid into 0.5 g of perpropionic acid. The mixture was mixed well prior to usage. Similar procedure was followed in the preparation of 3% sulphuric acid (where […] of water) and peroxy mix with ester (where 0.9 g of peroxy mix (prepared with peracetic and propionic acid) was mixed with 0.1 g of propylene glycol propionate esters). […] Briefly, 1 mL of 75% phosphoric acid was added to 10 mL of Pro-Oxine solution and mixed well. The mixture is covered and let to stand for 10 mins prior to usage.
Preparation of stock feed inoculum. The researchers prepared contaminated feed from known methods, where Salmonella enterica isolated from layer feed was revived from the glycerol stock by plating a loopful of culture onto the TSAYE (i.e., tryptone soya agar supplemented with 0.6% yeast extract (CM0131B; Oxoid) prepared as per recommended) and incubate for 18-24 hours at 37° C. Following which, the colonies were collected aseptically with saline solution (i.e., 0.9% sodium chloride (V800372; Sigma-Aldrich) prepared in deionized water), yielding approximately 5 mL of biomass suspension. The biomass suspension was diluted accordingly to meet the contamination level required for the stock inoculum. No dilution was required for high contamination level of ca. 10^7 cfu/g whereas biomass suspension was diluted 1000 times to achieve lower contamination level of ca. 10^4 cfu/g in the stock inoculum. The stock feed inoculum was prepared by adding the biomass suspension (5 mL) into 100 g of sterile feed (made up with 7:3 ground corn and soybean, autoclaved at 121° C. for one hour and dried for 24 hours at 65° C.) with a syringe and needle, and homogenously mixed after. The stock feed inoculum was stored at 25° C. for a week. Salmonella count of the stock inoculum was determined using conventional plating method with XLD agar (i.e., Xylose lysine deoxycholate (CM0469B; Oxoid)) and BPW (i.e., buffered peptone water (CM0509B; Oxoid)) prior to usage. Briefly, three grams of stock feed inoculum was weighed into a 50 mL conical tube, diluted with 27 mL of BPW, homogenously mixed and left to stand for 30 minutes. The feed suspension was then serial diluted to the appropriate dilutions. An aliquot of 0.1 mL of the feed suspension was plated onto the agar at each dilution and incubated at 37° C. for 18-24 hours prior to enumeration. Plating was carried out in triplicates. Blank stock feed was prepared by adding 5 mL of saline into 100 g of sterile feed.
Preparation of the feed inoculum. The stock feed inoculum was diluted approximately 100 times with sterile feed where three grams of stock inoculum was added into 307 g of sterile feed and kept at 37° C. for 24 hours. The Salmonella count of the feed was determined prior to treatment. Briefly, 90 mL of BPW was added into 10 g of feed sample in a sterile bag (10^−1 dilution). The mixture was homogenously mixed with a stomacher at medium speed for three minutes and left to stand for 30 minutes. The feed supernatant was serial diluted to appropriate dilutions for plating. The plates were incubated at 37° C. for 18-24 hours prior to counting. If low Salmonella count was expected, the sample size was increased to 1 mL by plating 300, 300 and 400 uL onto three plates in triplicates for […] detection limit (10 cfu/g). Blank feed was prepared by adding three grams of blank stock feed into 307 g of sterile feed. In addition, an extra contaminated feed was prepared as a control.
Treatment of contaminated feed. […]

[2] = tested on: Escherichia coli ATCC 25922; experiment: Minimum inhibitory concentration (MIC), broth microdilution; type: cell-based
Protocol: Materials and Methods. The assay was conducted to determine the minimum inhibitory concentration (MIC) of peroxy-acids against Escherichia coli ATCC 25922. E. coli was purchased from American Type Culture Collection (ATCC). The strain was stored at −80° C. in glycerol. Prior to usage, E. coli was revived by streaking a loopful of culture onto TSAYE (i.e., tryptone soya agar yeast extract (CM0131 and LP0021; Oxoid) prepared as per recommended by Oxoid) with overnight incubation at 37° C. An overnight culture of E. coli was diluted in TSBYE (i.e, tryptone soya broth yeast extract (CM0129; Oxoid) prepared as per recommended by Oxoid) to obtain a cell suspension of ca. 10^5 CFU/mL. Subsequently, 100 μL of the diluted culture was added to 100 μL of the test solutions at the needed concentrations into a microtiter plate (92096; TPP Techno Plastic Products AG). Peroxy-acids were tested at an active concentration of 25-1600 μg/mL. Subsequently, the inoculated plate was incubated at 37° C. up to 48 hours with the bacterial cell density recorded at optical density (OD) 600 nm at 24 hours interval using a microplate reader (Varioskan LUX; Thermo Fisher).

`CCC(=O)OO` [Perpropionic acid, perpropionic acid] was tested, and the Salmonella count [1] was 5.62 log cfu/g, the “Minimum inhibitory concentration (μg/mL) against E. coli” value ([2]; no increment in OD over 48 hours, 37° C.) was 500 µg/mL (≈ 5.55 mM) and the MIC ([2]; preliminary results) was 500 ppm.
